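48-hour exposure; five concentrations; linearly interpolated endpoints. GI50 is the concentration that inhibits growth by half.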 Active and inactive are the calls of the source. Cut-off read from the data, not from the text of the source: active = GI50 up to about 1.1 µM and inactive = higher.

The values that follow come from ChEMBL document CHEMBL1201862, “PubChem BioAssay data set” (2004).

Assay in all cases: NCI tumour cell line growth inhibition, 48 h
Assay [1] deals with UO-31.
Assay [2] relates to HCT-116.
The test system of assay [3] is HOP-92.
In assay [4] the test system is T47D.
Assay [5] relates to PC-3.
For assay [6], the system named is IGROV-1.
The test system of assay [7] is OVCAR-8.
The subject of assay [8] is RXF 393.
For assay [9], the system named is K562.
Assay [10] deals with HT-29.
For assay [11], the system named is HL-60.
The test system of assay [12] is MDA-MB-435.
Assay [13] relates to Hs-578T.
Assay [14] has as its system SNB-19.
The subject of assay [15] is SK-MEL-5.
Assay [16] has as its system OVCAR-5.
In assay [17] the test system is NCI-H460.
For assay [18], the system named is RPMI-8226.
The test system of assay [19] is NCI-H23.

Consider `CSc1c(C#N)c(O)n(-c2ccc(Cl)cc2)c(=O)c1C#N`, for which the GI50 in assay [1] is 72.9 µM (inactive); in assay [2] it was 63.5 µM (inactive); in [3], 30.8 µM (inactive); in assay [4] it was 64.9 µM (inactive); in assay [5], > 100 µM (inactive); in assay [6], > 100 µM (inactive). The GI50 is > 100 µM (inactive) in assay [7]; > 100 µM (inactive) in [8]; 35.6 µM (inactive) in assay [9]; > 100 µM (inactive) in assay [10]; 28.1 µM (inactive) in [11]; > 100 µM (inactive) in assay [12]. The GI50 in assay [13] was > 100 µM (inactive); in [14], > 100 µM (inactive); in assay [15], > 100 µM (inactive); in assay [16], > 100 µM (inactive); in assay [17], > 100 µM (inactive); in [18] it was 39.5 µM (inactive). Besides, the GI50 in assay [19] is 91.2 µM (inactive).

As to `CCOC(=O)c1c(-c2ccccc2)oc(=O)c(Cc2cccc3cccnc23)c1-c1ccccc1`, the GI50 is > 10 µM (inactive) in assay [1]; > 10 µM (inactive) in assay [2]; > 10 µM (inactive) in assay [3]; > 10 µM (inactive) in assay [4]; 9.55 µM (inactive) in [5]; > 10 µM (inactive) in [6]. In addition, the GI50 in assay [7], in assay [8], in assay [9], in assay [10], in assay [11] and in assay [12] was > 10 µM (inactive) each time. The GI50 in [13], in [14], in [15], in assay [16], in [17] and in assay [18] was > 10 µM (inactive) throughout. The GI50 in assay [19] is > 10 µM (inactive).

For the compound `C=CCN1C(=O)/C(=C/c2cccs2)N=C1SC/C=C/C`, the GI50 is 44.2 µM (inactive) in assay [1]; 26.3 µM (inactive) in assay [2]; 24.6 µM (inactive) in [3]; 21 µM (inactive) in [4]; 35.6 µM (inactive) in assay [5]; 63.8 µM (inactive) in assay [6]. Moreover, the GI50 was 37.6 µM (inactive) in assay [7]; 22.8 µM (inactive) in [8]; 32.5 µM (inactive) in assay [9]; 34.6 µM (inactive) in assay [10]; 21.3 µM (inactive) in assay [11]; 34.5 µM (inactive) in assay [12]. The GI50 in assay [13] is 32.7 µM (inactive); in assay [14], 80.9 µM (inactive); in assay [15], 19.1 µM (inactive); in assay [16], 65.6 µM (inactive); in [17], 38.3 µM (inactive); in assay [18], 16.9 µM (inactive). For the same compound, in [19], the GI50 is 44.7 µM (inactive).

On to `C[C@H]1[C@H]2[C@H](C[C@@]3(C)C4=CC[C@H]5C(C)(C)[C@@H](OC6OCC(O)C(O)C6O)CC[C@@]56C[C@@]46CC[C@]23C)O[C@@]2(O)[C@@H]1OC(C)(C)[C@H]2O` (stereo partly drawn), for which the GI50 is 3.57 µM (inactive) in assay [1]; 1.45 µM (inactive) in assay [2]; 1.09 µM (active) in assay [3]; 0.83 µM (active) in assay [4]; 1.07 µM (active) in assay [5]; 0.918 µM (active) in assay [6]. The GI50 in [7] was 0.879 µM (active); in [8], 1.2 µM (inactive); in assay [9], 2.39 µM (inactive); in [10], 2.61 µM (inactive); in assay [11], 6.47 µM (inactive); in [12] it was 0.984 µM (active). For the same compound, the GI50 in [13] is 0.682 µM (active); in [14], 2.49 µM (inactive); in assay [15], 1.66 µM (inactive); in assay [16], 4.75 µM (inactive); in assay [17], 2.12 µM (inactive); in [18], 1.15 µM (inactive). For the same compound, the GI50 in assay [19] was 1.09 µM (active).

Consider `CC(OP(=O)(O)O)C(N)C(=O)O` (stereo not drawn), for which the GI50 in assay [1], in [2], in assay [3], in assay [4], in assay [5] and in [6] was > 100 µM (inactive) in each case. Also, the GI50 in [7], in assay [8], in assay [9], in assay [10], in assay [11] and in assay [12] was > 100 µM (inactive) throughout. In addition, the GI50 in assay [13], in [14], in assay [15], in assay [16], in assay [17] and in assay [18] was > 100 µM (inactive) in each case. The GI50 in [19] is > 100 µM (inactive).

`COc1cc(CC(C)C(C)Cc2ccc(O)c(OC)c2)ccc1O` (stereo not drawn) [DIHYDROGUAIARETIC ACID]: the GI50 in assay [1] was 12.7 µM (inactive); in [2] it was 17.4 µM (inactive); in assay [3], 11.7 µM (inactive); in assay [4], 16.3 µM (inactive); in [5], 10.8 µM (inactive); in [6] it was 12.7 µM (inactive). For the same compound, the GI50 was 15.6 µM (inactive) in [7]; 13.1 µM (inactive) in [8]; 15 µM (inactive) in assay [9]; 22.5 µM (inactive) in assay [10]; 9.4 µM (inactive) in [11]; 13 µM (inactive) in [12]. Further, the GI50 in assay [13] is 8.15 µM (inactive); in assay [14] it was 21.8 µM (inactive); in assay [15] it was 8.55 µM (inactive); in assay [16] it was > 50 µM (inactive); in [17], 14.5 µM (inactive); in assay [18], 7.93 µM (inactive). Besides, in assay [19], the GI50 is 16.9 µM (inactive).

Take `CN(C)CCCNc1c2c(nc3ccc(Cl)cc13)CCCC2`: the GI50 in [1] was 10 µM (inactive); in assay [2] it was 6.03 µM (inactive); in [3] it was 10.3 µM (inactive); in assay [4], 26.5 µM (inactive); in assay [5] it was 13.7 µM (inactive); in [6], 12.7 µM (inactive). The GI50 in assay [7] was 12.8 µM (inactive); in assay [8], 12.9 µM (inactive); in assay [9], 0.492 µM (active); in [10], 5.47 µM (inactive); in [11] it was 15.9 µM (inactive); in assay [12] it was 14.9 µM (inactive). Also, the GI50 in assay [13] was 19.1 µM (inactive); in assay [14], 19.1 µM (inactive); in assay [15] it was 14.4 µM (inactive); in [16] it was 20 µM (inactive); in [17], 9.93 µM (inactive); in assay [18], 7.59 µM (inactive). Also, in [19], the GI50 was 15.8 µM (inactive).
